# Experimental data published in ChEMBL document CHEMBL1770070, “Dibenzylideneacetone analogues as novel Plasmodium falciparum inhibitors” (Bioorg Med Chem Lett, 2011).
# Tests used:
# Plasmodium falciparum [1] = experiment: Antiplasmodial activity against blood stage of chloroquine-sensitive Plasmodium falciparum 3D7 infected in human O positive erythrocytes after 48 hrs by SYBR green-I based fluorescence assay; format: functional, organism-based; settings: 3D7, 48 h
# Plasmodium falciparum [2] = experiment: Antiplasmodial activity against blood stage of chloroquine-resistant Plasmodium falciparum isolate RKL9 infected in human O positive erythrocytes after 48 hrs by SYBR green I-based fluorescence assay; format: functional, organism-based; settings: isolate RKL9, 48 h
# [3] = Cytotoxic activity against human HeLa cells after 24 to 48 hrs by MTT assay; format: cell-based; settings: read-out: TC50 (the source's name)
# Plasmodium falciparum [4] = experiment: Resistance index, ratio for IC50 for chloroquine-resistant Plasmodium falciparum isolate RKL9 to IC50 for chloroquine-sensitive Plasmodium falciparum 3D7; format: functional
# [5] = Therapeutic index, TC50 for human HeLa cells to IC50 for chloroquine-resistant Plasmodium falciparum isolate RKL9; format: cell-based; settings: read-out: TI
SMILES,IC50 (Plasmodium falciparum [1]) [µM],IC50 (Plasmodium falciparum [2]) [µM],CC50 [3] [µM],Ratio IC50 (Plasmodium falciparum [4]),selectivity ratio [5]
C(=C\c1ccccc1)/C1=NN(c2ccccc2)C(c2ccccc2)C1 (configuration not stated),> 308,,,,
O=C(/C=C/c1ccc(Cl)cc1Cl)/C=C/c1ccc(Cl)cc1Cl,9.94,10.8,> 269,1.08,> 25
O=C(/C=C/c1ccccc1Cl)/C=C/c1ccccc1Cl,6.26,6.26,231,1,37
Cc1ccc(/C=C/C(=O)/C=C/c2ccc(C)cc2)cc1,114,,,,
Cc1ccc(/C=C/C2=NN(c3ccccc3)C(c3ccc(C)cc3)C2)cc1 (configuration not stated),> 142,,,,
Fc1ccc(/C=C/C2=NN(c3ccccc3)C(c3ccc(F)cc3)C2)cc1 (configuration not stated),9.1,11.1,> 277,1.21,> 25
COc1ccccc1/C=C/C(=O)/C=C/c1ccccc1OC,74.7,,,,
O=C(/C=C/c1ccc(F)cc1)/C=C/c1ccc(F)cc1,133,,,,
COc1ccc(/C=C/C(=O)/C=C/c2ccc(OC)c(OC)c2)cc1OC,1.97,1.69,282,0.85,166
CN(C)c1ccc(/C=C/C(=O)/C=C/c2ccc(N(C)C)cc2)cc1,156,,,,
O=C(/C=C/c1cccc([N+](=O)[O-])c1)/C=C/c1cccc([N+](=O)[O-])c1,38.5,,,,
O=C(/C=C/c1ccc(Cl)cc1)/C=C/c1ccc(Cl)cc1,92.4,,,,
O=C(/C=C/c1ccc(Br)cc1)/C=C/c1ccc(Br)cc1,222,,,,
COc1ccc(/C=C/C2=NN(c3ccccc3)C(c3ccc(OC)cc3)C2)cc1 (configuration not stated),> 130,,,,
COc1ccc(/C=C/C(=O)/C=C/c2ccc(OC)cc2)cc1,255,,,,
O=C(/C=C/c1ccccc1)/C=C/c1ccccc1,213,,,,
